Measured values as given in PubChem BioAssay AID1320 (NMMLSC, 2008).
Calls of active or inactive are those of the source. The rule behind the calls is not given here.

Molecular target: Bcl-2-related protein A1 (Homo sapiens) (UniProt Q16548)
Assay: Bfl-1/Bim complex disruptors – biochemical, multiplexed, bead-based flow cytometry, dose response (AID 1320); note: test concentration not given here
Details: Bim peptide-Bfl-1 binding, fluorescence

Chain of Bcl-2-related protein A1 (Homo sapiens) (Q16548 whole entry, looked up): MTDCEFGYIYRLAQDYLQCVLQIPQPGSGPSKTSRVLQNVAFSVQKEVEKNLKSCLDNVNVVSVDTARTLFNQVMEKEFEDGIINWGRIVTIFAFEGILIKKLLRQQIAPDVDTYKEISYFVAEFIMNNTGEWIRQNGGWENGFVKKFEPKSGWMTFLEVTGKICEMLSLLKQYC

Row | SMILES | percent span (inhibition)
1 | CCCCN(C(=O)CCC(=O)Nc1cc(C)on1)C(C(=O)NC(C)(C)C)c1cccc(OC)c1OC (centres undefined) | inactive
2 | CC1(C)SC(=S)N(NC(=O)Nc2ccccc2)C1N(O)C(=O)Nc1cccc2ccccc12 (centres undefined) | inactive
3 | c1ccc(Nc2nc(-c3ccncc3)cs2)cc1 | inactive
4 | O=C(NC1=C(Nc2ccc(F)cc2)C(=O)c2ccccc2C1=O)c1ccc(Cl)cc1 | inactive
5 | COc1ccc(NC(=O)c2cc(-c3ccc(C)o3)nc3ccccc23)cc1OC | inactive
6 | O=C(Nc1ccccc1)Nc1ccc2ncoc2c1 | inactive
7 | Cn1c(OCc2cccnc2)nc2c1c(=O)n(Cc1ccccc1)c(=O)n2C | inactive
8 | O=C1c2ccccc2-c2onc3ccc(NCc4ccco4)c1c23 | inactive
9 | CC1=NN(c2ccc(C)cc2)C(=O)/C1=C\c1ccc(Br)s1 | inactive
10 | Cn1c(=O)[nH]c(=O)c2c1nc(N1CCOCC1)n2CCSc1nc2ccccc2[nH]1 | inactive
11 | Cc1cc(C)cc(-n2c(C)nc3cc(C(=O)O)ccc32)c1 | inactive
12 | COC(=O)c1c(NC(=O)COc2ncnc3ccccc23)sc(C)c1C | inactive
13 | O=C(c1cccc(Br)c1)N1CCN(c2cnn(-c3ccccc3)c(=O)c2Cl)CC1 | inactive
14 | CCSc1ncnc2sc(C)c(C)c12 | inactive
15 | CC(/C=C/C(=O)c1ccc(C)cc1)=C\c1ccccc1 | inactive
16 | Cc1ccc(/C=N/NC(=O)CSc2nnc(-c3ccc(Cl)cc3)n2-c2ccccc2)o1 | inactive
17 | CC1CC2=C(NC(=S)NC2c2ccccc2F)/C(=C/c2ccccc2F)C1 (centres undefined) | inactive
18 | COc1ccccc1OCc1ccc(C(=O)Nc2ccccc2F)cc1 | inactive
19 | Cc1occc1C(=O)NNC(=S)NCc1ccccc1 | inactive
20 | CCOC(=O)c1cccc(Nc2ncnc3ccccc23)c1 | inactive
21 | CNC(=S)N/N=C/C1=CCC2CC1C2(C)C (centres undefined) | inactive
22 | Cc1ccc(NN2C(=O)C=CC2=O)cc1 | inactive
23 | Cc1ccc(/C=N/N(C)C2=NS(=O)(=O)c3ccccc32)o1 | inactive

Row | SMILES | percent span (inhibition)
24 | O=C1N/C(=C/c2cccn2-c2ccccc2)C(=O)N1Cc1ccc(F)cc1 | inactive
25 | Cc1ccnc(NS(=O)(=O)c2ccc(NC(=O)c3c(-c4ccccc4Cl)noc3C)cc2)n1 | inactive
26 | O=S1(=O)N=C(N(CCO)/N=C/C=C/c2ccccc2)c2ccccc21 | inactive
27 | CCOc1cc(NC(=S)NC)c(OCC)cc1NC(=O)c1ccc(OC)cc1 | inactive
28 | O=C(CSc1nnc(-c2ccccc2)c(-c2ccccc2)n1)N1CCc2ccccc21 | inactive
29 | C=CCn1c(C)cc(-c2csc(NC)n2)c1C | inactive
30 | Cc1ccc(Nc2nc(-c3ccccc3)c(CC(=O)O)s2)cc1 | inactive
31 | COc1cc(N2CCOCC2)ccc1C=C1C(=O)NC(=O)NC1=O | inactive
32 | CC1(C)CC(=O)C(C=NCCN2CCN(CCc3ccccc3)CC2)=C(O)C1 | inactive
33 | COc1cc(NC(=S)NCCCO)c(OC)cc1Cl | inactive
34 | CC(C)c1ccc(/C=N/NC(=O)c2ccccc2Cl)cc1 | inactive
35 | COC(=O)CCC(=O)Nc1sc(C)c(C)c1C(N)=O | inactive
36 | CC(=O)N1CCN(C(=O)c2ccc(-n3c(C)ccc3C)cc2)CC1 | inactive
37 | Cc1nc2cc(F)ccc2n1C1CCN(C(=O)c2c(F)cccc2F)CC1 | inactive
38 | CCn1c(SCC(=O)Nc2ccc(C)cc2)nnc1-c1ccc(O)cc1 | inactive
39 | Cc1ccccc1/C=N/Nc1ccnc2cc(Cl)ccc12 | inactive
40 | CCCCC(=O)Nc1ccc(C(=O)N2CCC(C(=O)OCC)CC2)cc1 | inactive
41 | Cc1ccc(S(=O)(=O)NC(=O)COc2ccccc2C)cc1 | inactive
42 | CC1Nc2ccccc2C(=O)N1NS(=O)(=O)c1ccccc1 (centres undefined) | inactive
43 | c1cncc(-c2nnc3n2N=C(c2cccs2)CS3)c1 | inactive
44 | CCCCNC(=O)c1ccc2nc(-c3ccco3)c(-c3ccco3)nc2c1 | inactive
45 | CC1Nc2ccccc2C(=O)N1NS(C)(=O)=O (centres undefined) | inactive
46 | Cc1cc(C)c[n+](-c2nc3ccccc3nc2C(=C=[N-])C#N)c1 | inactive

Row | SMILES | percent span (inhibition)
47 | Fc1ccccc1-n1cc(-c2ccccc2)[nH]c1=S | inactive
48 | N=C1C(c2nc3ccccc3s2)=C(O)CN1Cc1ccccc1 | inactive
49 | Cc1ccccc1-n1nc(SCC(=O)O)sc1=S | inactive
50 | O=C(Nc1cccc(Cl)c1)Nc1ccc(Cl)cn1 | inactive
51 | Cc1nonc1NC(=O)CSc1nnc(-c2ccoc2C)n1C | inactive
52 | CCOc1ccccc1-n1c(=O)c2ccccc2c2ccccc2c1=O | inactive
53 | CN1CCN(c2ccccc2N)CC1 | inactive
54 | O=C(c1ccccc1NS(=O)(=O)c1ccc(Br)s1)N1CCCC1 | inactive
55 | CN(C)S(=O)(=O)N(CC(=O)Nc1ccccc1C(F)(F)F)c1ccccc1 | inactive
56 | CCc1nnc(NC(=O)CSc2nnc(COc3ccc(C)cc3)n2-c2ccccc2)s1 | inactive
57 | CCOc1cc(/C=N/NC(N)=O)ccc1OCC(=O)Nc1ccc(C)c(C)c1 | inactive
58 | COc1ccc(NC(=O)/C(C#N)=C/c2c(C)nn(-c3ccc(F)cc3)c2Cl)cc1Cl | inactive
59 | CCN(CC)c1ccc(NC(=O)c2cccc(C)c2)cc1S(=O)(=O)Nc1ccccc1OC | inactive
60 | O=C(NCCCN1CCN(CCCNC(=O)c2cc([N+](=O)[O-])ccc2Cl)CC1)c1cc([N+](=O)[O-])ccc1Cl | inactive
61 | COc1ccc(C(=O)NC(=S)N2CCNC(=O)C2)cc1Br | inactive
62 | Cc1cc(-c2nnc(CCC(=O)NC(C)c3cccc4ccccc34)o2)no1 (centres undefined) | inactive
63 | CC1(C(=O)N(CC(=O)NC2CCCC2)Cc2ccco2)CC(=O)N=C2C=CC=CN21 (centres undefined) | inactive
64 | O=C(Nc1ccccc1N1CCOCC1)c1cccs1 | inactive
65 | Cc1ccc(C)c(N2CCN(C(=S)Nc3ccc4nc(N5CCN(C)CC5)cc(C)c4c3)CC2)c1 | inactive
66 | O=C(NNC(=O)C12CC3CC(CC(C3)C1)C2)c1ccco1 | inactive
67 | O=C(CSc1nnc(-c2cccs2)n1Cc1ccco1)c1ccc2c(c1)OCO2 | inactive
68 | CCc1ccc(/C=C/C(=O)c2cc(Br)ccc(=O)c2O)cc1 | inactive
69 | COc1ccc(C(=O)Nc2ccc(NC(=O)c3cccs3)cc2)cc1Cl | inactive

Row | SMILES | percent span (inhibition)
70 | CCOC(=O)c1nn(-c2ccccc2)c(C#N)c1N | inactive
71 | CCOc1ccc(C2=Nn3c(nnc3-c3ccccn3)SC2)cc1 | inactive
72 | O=C1Nc2ccc([N+](=O)[O-])cc2OC1CCN1CCN(Cc2ccc3c(c2)OCO3)CC1 (centres undefined) | inactive
73 | CN(C)c1cccc(NC(=O)C2(C)CC2(Cl)Cl)c1 (centres undefined) | inactive
74 | CN1CCN(c2ccc(N)cc2)CC1 | inactive
75 | CCc1ccc(NC(=O)Cc2ccc(OC)cc2)cc1 | inactive
76 | O=c1c2c(n3nnnc3n1Cc1ccccc1)-c1ccccc1CC21CCCC1 | inactive
77 | OC(COc1ccc2ccccc2c1)CN1CCCC1 (centres undefined) | inactive
78 | CC1=CC(=O)c2ccccc2C1=O | inactive
79 | O=S1(=O)N=C(N(CCO)/N=C/c2ccncc2)c2ccccc21 | inactive
80 | CCOC(=O)c1ccc(Nc2nc(C(=O)OCC)nc3ccccc23)cc1 | inactive
81 | C=CCn1c(SCC(=O)Nc2ccc3c(c2)OCO3)nnc1-c1cc(Br)ccc1O | inactive
82 | O=C(N/N=C/c1cccc([N+](=O)[O-])c1)c1cccs1 | inactive
83 | CCOc1ccccc1/C=N/NC(=O)CNC(=O)COc1ccccc1 | inactive
84 | Cc1cc(-c2nnc3n2N=C(c2ccc(-c4ccccc4)cc2)CS3)n[nH]1 | inactive
85 | Cc1ccc(C2=N/C(=C/c3cccs3)C(=O)N2Nc2ccccc2)cc1 | inactive
86 | COc1ccccc1-n1c(-c2ccc(Cl)cc2)c[nH]c1=S | inactive
87 | CCCCOc1ccc(Cc2c(Cl)nc(SC)nc2N2CCOCC2)cc1 | inactive
88 | Cn1c(N)c(C(=O)COC(=O)c2cc(-c3ccco3)nc3ccccc23)c(=O)n(Cc2ccccc2)c1=O | inactive
89 | Cc1cc(N2CCN(C)CC2)nc2ccc(NC(=S)N3CCCCC3)cc12 | inactive
